pEC50, pIC50: −log10 of the molar value. Read-outs that look alike come from different tables or passages of the source.
Legend:
[1] = molecular target: T1, SARS-Cov-2 3CLpro (Severe acute respiratory syndrome coronavirus 2, UniProt P0DTD1); experiment: SARS-Cov-2 3CLpro protease assay (SAMDI-MS); format: biochemical
T1 construct: 3CLpro was added using a Multidrop Combi

[2] = system: SARS-CoV-2 B.1.1.7 lineage; experiment: microbe, parasite or virus in culture; format: cell-based; details: Severe acute respiratory syndrome coronavirus 2, 96 h; read-out: A549-dual_ACE2_TMPRSS2 (EC50)
[3] = in vitro; details: human
[4] = 30 mins preincubation, duplex peptide substrates, read-out: SARS-Cov-2 (3CLpro IC50)

Row | SMILES | pIC50 [1, 4] | pEC50 [2] | CC50 [3] [nM] | pIC50 ([1]; bound given in table footnote, read-out: SARS-Cov-2 activity (footnote of Table 1))
1 | CC(C)(C)[C@H](NC(=O)C(F)(F)F)C(=O)N1C[C@H]2[C@@H]([C@H]1C(=O)NC(C#N)c1cccc3ccccc13)[C@H]1C=C[C@@H]2C1 (stereo partly drawn) [Compound 16] | 5.70 to 6.70 | ≤ 6.00 | > 1000 | –
2 | CC(C)(C)[C@H](NC(=O)C(F)(F)F)C(=O)N1C[C@@H]2[C@@H]3C[C@H]([C@@H]2[C@H]1C(=O)NC(C#N)c1cnn(-c2ccccc2)c1)[C@H](F)C3 (stereo partly drawn) [Compound 13] | – | ≤ 6.00 | > 1000 | –
3 | C#CC(NC(=O)[C@@H]1[C@@H]2[C@H](CN1C(=O)[C@@H](NC(=O)C(F)(F)F)C(C)(C)C)[C@H]1C[C@@H]2[C@H](F)C1)c1cncc2ccccc12 (stereo partly drawn) [Compound 32, (1S,3aR,4S,6R,7S,7aR)-2-((S)-3,3-dimethyl-2-(2,2,2-trifluoroacetamido)butanoyl)-6-fluoro-N-(1-(isoquinolin-4-yl)prop-2-yn-1-yl)octahydro-1H-4,7-methanoisoindole-1-carboxamide] | 6.70 to 7.70 | – | – | –
4 | Cc1ncc2ccccc2c1C(C#N)NC(=O)[C@@H]1[C@@H]2[C@H](CN1C(=O)[C@@H](NC(=O)C(F)(F)F)C(C)(C)C)[C@@H]1C=C[C@H]2C1 (stereo partly drawn) [Compound 21] | 4.70 to 5.70 | ≤ 6.00 | > 1000 | –
5 | CC(C)(C)[C@H](NC(=O)C(F)(F)F)C(=O)N1C[C@@H]2[C@@H]3CC([C@@H]2[C@H]1C(=O)NC(C#N)c1cnn(-c2ccccc2)c1)[C@H](F)C3 (stereo partly drawn) [Compound 13] | 5.70 to 6.70 | – | – | –
6 | N#CC(NC(=O)C1[C@@H]2[C@H](CN1C(=O)c1cnn(-c3ccccc3C(F)(F)F)c1)[C@H]1C[C@@H]2[C@H](F)C1)c1cncc2ccccc12 (stereo partly drawn) [Compound 12, (1S,2R,3S,6R,7S,9R)—N-[cyano(isoquinolin-4-yl)methyl]-9-fluoro-4-{1-[2-(trifluoromethyl)phenyl]pyrazole-4-carbonyl}-4-azatricyclo[5.2.1.0^{2,6}]decane-3-carboxamide] | 6.70 to 7.70 | ≤ 6.00 | > 1000 | –
7 | CC(C)(C)[C@H](NC(=O)C(F)(F)F)C(=O)N1C[C@@H]2[C@@H]3CC([C@@H]2[C@H]1C(=O)NC(C#N)c1cncc(-c2ccccc2)c1)[C@H](F)C3 (stereo partly drawn) [Compound 14] | > 7.70 | – | – | –
8 | CC(C)(C)[C@H](NC(=O)C(F)(F)F)C(=O)N1C[C@@H]2[C@H]3C[C@@H]([C@@H]2[C@H]1C(=O)NC(C#N)c1cncn1-c1ccccc1)[C@H](F)C3 (stereo partly drawn) [Compound 23] | 6.70 to 7.70 | ≤ 6.00 | > 1000 | < 6.30

Reference: patent US20240182444A1, “ANTI-VIRAL COMPOUNDS” (Aligos Therapeutics, Inc., priority 2022, published 2024)
